From US6506393B2, “Methods of treating protozoal diseases” (Zentaris AG, priority 1991, dated 2003)
≈ marks a conversion by molar mass, not a printed value. Entries after “also recorded” stand apart in the source; their conditions may differ.

Assays:
L. donovani [1] = test: Effect of leishmaniasis drugs on the number of pathogens in liver and spleen of rats infected with L. donovani (Examples 39, 40); format: in vivo; settings: for Pathogens per spleen (in millions): 3 week period of therapy; for Relative effectiveness (pathogens per spleen after Pentostam therapy divided by pathogens/spleen after addition of test substance): procedure as in example 39 (orally 5 × 20 mg/kg/week for 3 weeks)
L. donovani [2] = test: as above; format: in vivo; settings: for Relative effectiveness (pathogens per liver after Pentostam therapy divided by pathogens/liver after addition of test substance) / Pathogens per liver (in millions): orally 5 × 20 mg/kg/week for 3 weeks; for Pathogens per liver (in millions): rats infected with L. donovani, microscopic analysis
Description: Effect of various leishmaniasis drugs on the presence of pathogens in the liver of experimental animals (rats) infected with L. donovani.
The compounds according to the present invention and Et18OCH3 were administered orally while Pentostam was administered intravenously.
The number of pathogens per liver was determined by microscopic analysis.
The experimental procedure was as described in example 39.

[3] = system: three strains of Leishmania (L. donovani MHOM/IN/54LRC-L.51; L. donovani MHOM/IN/80/DDS and L. infantum MHOM/ES/86/STI-172); test: Effect on pathogens in vivo: parasite burden in liver and spleen of infected Balb/c mice (Example 42)
Description: Several compounds of the invention were tested against three strains of Leishmania (L. donovani MHOM/IN/54LRC-L.51; L. donovani MHOM/IN/80/DDS and L. infantum MHOM/ES/86/STI-172). All strains were isolated from patients with visceral leishmaniasis. Before use for experiments, the strains were passed through Balb/c mice by intravenous injection.
Balb/c mice were infected by intravenous injection of a mixture of 10^7 promastigotes from stationary growth phase and 10^7 amastigotes which were isolated from the liver or spleen of leishmania-infected mice. Oral treatment with the compounds of the invention was initiated on day 7, at which time the mean parasitic burden was 100 to 200×10^6 amastigotes per liver, 1 to 2×10^6 per spleen and 3 to 6 amastigotes per microscopic field of 100 hematopoietic cells in bone marrow.
Parasite burden in spleen and liver were determined in GIEMSA's stained impression smears from cut sections by counting the number of amastigotes per 1000 spleen or liver nuclei. The total number of amastigotes per organ was calculated according to Stauber et al. (J. Protozool. 5:269-273 (1958)). Parasite suppression (parasite burden of drug treated mice to parasite burden of untreated mice) and parasite killing (parasite burden at the end of treatment to parasite burden at the start of treatment) were calculated according to Baumann et al. (Antimicrob. Agents Chemother. 35:1403-1407 (1991)) for all strains on day 14, for the strain LRC-L.51 in addition on days 21, 25 and 35 post-infectionem. The parasite burden in the bone marrow was examined on days 7 and 35 post-infectionem (strain LRC-L.51).
Table V summarizes the in vivo treatment results of several compounds of the invention in the liver and the spleen of treated mice. […] However, it is clear from the Table that the compounds of the invention produced much better results.

[4] = in vivo, sc; cited from earlier work
Leishmania = test: Four-week treatment period of Leishmania-infected mice (Example 43); format: in vivo
Excerpt: In a further experiment, hexadecylphosphocholine was investigated in more detail.

[5] = system: L. donovani strain MHOM/IN/54LRC-L.51 promastigotes; test: Effect on pathogens in vitro: promastigote culture, 96 hours, counting chamber (Example 41); format: cell-based; settings: 96 hours of incubation, 26° C., mean and SD of 3 experiments; for IC50: Leishmania donovani
Description: Several compounds of the invention were tested against L. donovani strain MHOM/IN/54LRC-L.51, isolated from a patient with visceral leishmaniasis. Before use for experiments, the strain was passed through Balb/c mice by intravenous injection.
Promastigotes were cultured in vitro in a mixed medium consisting of one part of HOSMEM and one part of RPMI-1640 (Gibco 041-02400) supplemented with 10% heat-inactivated fetal bovine serum (Gibco 011-06290) at 26° C. Cultures were maintained by seeding 5×10^6 promastigotes from 4-day-old cultures into 10 ml fresh medium. The promastigotes were cultured in 24-well-multiplates. After 96 hours of incubation in control or drug-containing media, the number of promastigotes was determined in a Neubauer counting chamber. The 50% inhibitory concentration was calculated graphically. The data is representative of the mean and SD values of 3 different experiments.

[6] = procedure as in example 39 (orally 5 × 20 mg/kg/week)

Compound | Pathogens per spleen (in millions) (L. donovani [1]; [6]) [millions] | Relative effectiveness (pathogens per spleen after Pentostam therapy divided by pathogens/spleen after addition of test substance) (L. donovani [1]) | Pathogens per liver (in millions) (L. donovani [2]) [millions] | Parasites (× 10^6) Liver ([3]; oral treatment, dose 20 mg/kg) | Parasites (× 10^6) Spleen ([3]; oral treatment, dose 20 mg/kg) | IC50 [5] [µg/mL] | IC50 Value [5] [µg/mL] | further results
CCCCCCCCCCCCCCCCCCOCC(COP(=O)([O-])OCC[N+](C)(C)C)OC (racemic) [Et18OCH3, 1-octadecyl-2-methyl-rac-glycero-3-phosphocholine, reference compound] | 6.5 | 0.9 | 424.7 | – | – | – | – | Relative effectiveness (pathogens per liver after Pentostam therapy divided by pathogens/liver after addition of test substance) (L. donovani [2]): 0.007
CCCCCCCCCCCCCCCCOP(=O)([O-])OCC[N+](C)(C)C [Example 1, Hexadecylphosphocholine] | 0.01 | – | 0.1 | 0.07 × 10^6 | 0.008 × 10^6 | 2.07 ± 0.23 (≈ 5.08 µM) | – | Parasites microscopically detectable (L. donovani [1]; several additional experiments (Example 40, spleen), single oral dose of 200 mg): no longer microscopically detectable; Parasites microscopically detectable in the liver and in the spleen (L. donovani [2]; additional experiments, single oral dose of 200 mg): no longer microscopically detectable; Toxicity for the experimental animals, in particular for macrophages [4]: highly toxic; Spleen Weight (Leishmania; Leishmania-infected mice, 10 mg (oral)): 150 mg; Reduction of parasites in the spleen (Leishmania; spleen, oral treatment with 20 mg/kg): more than three log rank reduction of parasites
CCCCCCCCCCCCCCCCCCOP(=O)([O-])OCC[N+](C)(C)C [Example 2, Octadecylphosphocholine] | 0.01 | 630.0 | 0.1 | 0.07 × 10^6 | 0.015 × 10^6 | 0.8 ± 0.2 (≈ 1.84 µM) | – | Relative effectiveness (pathogens per liver after Pentostam therapy divided by pathogens/liver after addition of test substance) (L. donovani [2]): 32.0
CCCCCCCC/C=C/CCCCCCCCOP(=O)([O-])OCC[N+](C)(C)C [Example 4, Elaidylphosphocholine] | – | – | – | 28 × 10^6 | 0.02 × 10^6 | 0.41 ± 0.14 (≈ 0.946 µM) | – | –
CCCCCCCC/C=C\CCCCCCCCOP(=O)([O-])OCC[N+](C)(C)CC [Example 7, Oleylphospho-(N.N-dimethyl-N-ethyl)ethanolamine] | 0.03 | 210.0 | 4.7 | – | – | – | – | Relative effectiveness (pathogens per liver after Pentostam therapy divided by pathogens/liver after addition of test substance) (L. donovani [2]; 20 mg/kg): 0.7; Relative effectiveness (pathogens per liver after Pentostam therapy divided by pathogens/liver after addition of test substance) (L. donovani [2]; listed as olely-phospho-(N.N-dimethyl-N-ethyl)ethanolamine, 20 mg/kg): comparable effect to Pentostam
CCCCCCCCCCCCCCCCCCOP(=O)([O-])OCC[N+]1(C)CCCC1 [Example 19, Octadecylphospho-(N-methyl)-pyrrolidino-ethyl ester] | – | – | – | 22 × 10^6 | 0.035 × 10^6 | – | 3.59 ± 0.19 (≈ 7.78 µM) | –
CCCCCCCC/C=C\CCCCCCCCOP(=O)([O-])OCC[N+](C)(CC)CC [Example 20, Oleylphospho-(N.N-diethyl-N-methyl)-ethanolamine] | – | – | – | 55 × 10^6 | 3.8 × 10^6 | – | 2.80 ± 0.50 (≈ 6.06 µM) | –
O.O.O.O.O.O.O.O.O.O=C([O-])[C@@H]1[O][Sb]2([O-])([O][Sb]34([OH])[O][C@H]([C@H](O)CO)[C@H]([O]3)[C@H](C(=O)[O-])[O]4)[O][C@H]([C@H](O)CO)[C@@H]1[O]2.[Na+].[Na+].[Na+] [Pentostam, sodium stibogluconate, reference compound] | – | – | – | – | – | – | – | Parasites (× 10^6) Liver ([3]; Pentostam, dose 120 mg/kg): significantly reduced the parasite burden; Parasites (× 10^6) Spleen ([3]; Pentostam, dose 120 mg/kg): significantly reduced the parasite burden; Pathogens per spleen (in millions) (L. donovani [1]; procedure as in example 39 (Pentostam iv. 5 × 120 mg/kg/week), 120 mg/kg): weak effect; also recorded: extremely low effectiveness; Suppression of parasite growth in the spleen compared to control mice (Leishmania; spleen, Pentostam): only a moderate suppression of parasite growth
CCCCCCCC/C=C\CCCCCCCCOP(=O)([O-])OCC[N+](CC)(CC)CC [cis-9-octadecenylphospho-(N,N-diethyl,N-ethylamino)ethanol] | – | – | – | 6 × 10^6 | 0.03 × 10^6 | – | 0.66 ± 0.24 (≈ 1.39 µM) | –
octadecylphosphoethanol-(N-methyl)piperidine | – | – | – | 65 × 10^6 | 0.35 × 10^6 | – | 4.90 ± 0.50 | –
